Measurements: US7811797B2, “α-isomaltosylglucosaccharide-forming enzyme, process and uses of the same” (Kabushiki Kaisha Hayashibara Seibutsu Kagaku Kenkyujo, priority 2000, dated 2010)

Experiments:
[1] = system: α-isomaltosylglucosaccharide-forming enzyme; assay: Transfer-acceptor specificity, Enzyme of Strain C9; format: biochemical, Bacillus globisporus C9; conditions: acceptor 1.6%, PINE-DEX #100 donor 4%, one unit/g donor, 30° C., pH 6.0, 24 hours
Procedure, shortened: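 Each candidate acceptor at 1.6% was combined with 4% partial starch hydrolysate donor and 1 unit/g donor (d.s.b.) of purified enzyme. Incubation ran 24 h at 30 °C, pH 6.0 for the C9, C11 and N75 enzymes and pH 8.4 for A19. Transfer products were detected by GLC for mono- and disaccharide acceptors and HPLC for trisaccharide acceptors.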

[2] = system: α-isomaltosylglucosaccharide-forming enzyme; assay: Transfer-acceptor specificity, Enzyme of Strain C11; format: biochemical, Bacillus globisporus C11; conditions: acceptor 1.6%, PINE-DEX #100 donor 4%, one unit/g donor, 30° C., pH 6.0, 24 hours
[3] = system: Lactobacillus acidophilus JCM 1132; assay: Assimilation test, Lactobacillus acidophilus; format: cell-based; conditions: PYF medium with 0.5% saccharide, 37° C., four days, anaerobic
[4] = pH stability of cyclotetrasaccharide solution; format: physicochemical; conditions: 4% (w/v), 100° C. for 24 hours; for Purity (%) after heating: HPLC
Experimental: Eight milliliters of each solution was placed in a glass test tube, followed by sealing the test tube and heating the solution at 100° C. for 24 hours. After cooling, each solution was measured for coloration degree and determined for purity on HPLC. The coloration degree was evaluated based on the absorbance in a cell with a 1-cm light pass at a wavelength of 480 nm.

[5] = system: mice; assay: Acute toxicity test, oral administration; format: in vivo
From the text: Based on this, the LD50 of cyclotetrasaccharide was at least 50 g/kg mouse body weight, though the data were not so accurate.

[6] = system: internal content of rat cecum; assay: Fermentation test by internal content of rat cecum; format: in vitro ADME
Experimental: The internal content of rat cecum was collected by anesthetizing a Wister male rat with ether, allowing the rat to die, collecting the internal content under anaerobic conditions, and suspending the resultant with 4-fold volumes of a 0.1 M aqueous solution of sodium bicarbonate. Cyclotetrasaccharide was added in an amount of about 7% by weight to the internal content of rat cecum, and the contents of cyclotetrasaccharide still remained just after and 12 hours after the addition of the internal content was quantified on gas chromatography. As a result, the contents of cyclotetrasaccharide of the former and latter were respectively 68.0 mg and 63.0 mg per one gram of the internal content of rat cecum.

[7] = system: Eubacterium aerofaciens ATCC 25986; assay: Assimilation test, Eubacterium aerofaciens; format: cell-based; conditions: PYF medium with 0.5% saccharide, 37° C., four days, anaerobic

SMILES: OC[C@@H](O)[C@@H](O[C@H]1O[C@H](CO)[C@@H](O)[C@H](O)[C@H]1O)[C@H](O)[C@@H](O)CO [Maltitol, reference compound]
- Product of transferring reaction, Enzyme of Strain C9 [1]: ++ (a saccharide-transferred product was detected in an amount over ten percent through transfer reaction to acceptor)
- Product of transferring reaction, Enzyme of Strain C11 [2]: ++ (a saccharide-transferred product was detected in an amount over ten percent through transfer reaction to acceptor)

SMILES: OCC1OC2OCC3O[C@H](O[C@H]4C(O)C(CO)OC(OCC5O[C@H](O[C@@H](C1O)C2O)C(O)C(O)[C@@H]5O)C4O)C(O)C(O)[C@@H]3O (stereo partly drawn) [Cyclotetrasaccharide, cyclo{→6)-α-D-glucopyranosyl-(1→3)-α-D-glucopyranosyl-(1→6)-α-D-glucopyranosyl-(1→3)-α-D-glucopyransoyl-(1→}]
- Assimilability [3]: − (judged negative (−) when the post culture had a pH of 6.0 or higher)
- Coloration degree (A480 nm) ([4]; pH 2.0 (Acetate buffer)): 0.00 A480 nm
- Purity (%) after heating ([4]; pH 2.0 (Acetate buffer)): 93%
- Coloration degree (A480 nm) ([4]; pH 3.0 (Acetate buffer)): 0.00 A480 nm
- Purity (%) after heating ([4]; pH 3.0 (Acetate buffer)): 100%
- Coloration degree (A480 nm) ([4]; pH 4.0 (Acetate buffer)): 0.00 A480 nm
- Purity (%) after heating ([4]; pH 4.0 (Acetate buffer)): 100%
- Coloration degree (A480 nm) ([4]; pH 5.0 (Acetate buffer)): 0.00 A480 nm
- Purity (%) after heating ([4]; pH 5.0 (Acetate buffer)): 100%
- Coloration degree (A480 nm) ([4]; pH 6.0 (Tris-HCl buffer)): 0.00 A480 nm
- Purity (%) after heating ([4]; pH 6.0 (Tris-HCl buffer)): 100%
- Coloration degree (A480 nm) ([4]; pH 7.0 (Tris-HCl buffer)): 0.00 A480 nm
- Purity (%) after heating ([4]; pH 7.0 (Tris-HCl buffer)): 100%
- Coloration degree (A480 nm) ([4]; pH 8.0 (Tris-HCl buffer)): 0.00 A480 nm
- Purity (%) after heating ([4]; pH 8.0 (Tris-HCl buffer)): 100%
- Coloration degree (A480 nm) ([4]; pH 9.0 (Ammonium buffer)): 0.00 A480 nm
- Purity (%) after heating ([4]; pH 9.0 (Ammonium buffer)): 100%
- Coloration degree (A480 nm) ([4]; pH 10.0 (Ammonium buffer)): 0.00 A480 nm
- Purity (%) after heating ([4]; pH 10.0 (Ammonium buffer)): 100%
- death of mice ([5]; highest possible dose): did not induce death of mice
- LD50 ([5]; mice, data not so accurate): at least 50 g/kg mouse body weight
- content of cyclotetrasaccharide remained ([6]; 12 hours after the addition): 63.0 mg per one gram of the internal content of rat cecum
- content of cyclotetrasaccharide remained ([6]; just after the addition, about 7% by weight added): 68.0 mg per one gram of the internal content of rat cecum
- Assimilability [7]: − (judged negative (−) when the post culture had a pH of 6.0 or higher)
